Assay results reported in patent publication EP0063149B1, “AQUEOUS FLUOROCARBIDE EMULSIONS INDEFINITELY STABLE AT A GIVEN TEMPERATURE, PROCESS FOR OBTAINING THEM AND APPLICATIONS” (Etablissement Public dit: CENTRE NATIONAL DE LA RECHERCHE …, priority 1980, dated 1982).

What was measured:
[1] = Solubility and dispersion of the surfactant in physiological saline; format: physicochemical
Procedure: A des fins de comparaison, on a également utilisé les microémulsions ci-dessus d'une part en présence d'éthanol et d'autre part en l'absence d'éthanol.
En présence d'éthanol (VN), une solution limpide a été obtenue avec l'agent tensio-actif. Celle-ci, ajoutée dans les proportions de 0,2 ml à 1,8 ml d'eau physiologique, a donné, après agitation, une émulsion laiteuse, instable, s'éclaircissant en 15 minutes environ, tant à la température du laboratoire qu'à 37 °C.

sang humain [2] = assay: Diluted thrombin time on plasma of blood put in contact with the products; format: biochemical; conditions: summary
Procedure: (§1) • le sang humain était du sang de sujets normaux, prélevé le jour de l'essai, en flacon siliconé, et sur citrate à 9 %, dans le rapport du 1/20; • les produits (microémulsions ou témoin) mis en présence de ce sang, en proportions variables, ont permis, après 10 minutes d'incubation à la température du laboratoire, de pratiquer un thromboélastogramme sur sang total, afin de mettre en évidence une action éventuelle sur la coagulation globale selon le mode opératoire décrit par C. RABY dans Biologie des Hémorragies et des Thromboses 1 vol., Masson et Cie, Edit. Paris 1966, p. 187; • un temps de thrombine diluée a été effectué sur les plasmas des sangs ayant été en contact avec les microémulsions selon l'invention pendant 30 minutes à la température du laboratoire selon le mode opératoire décrit par C. RABY à la page 119 de l'ouvrage cité ci-dessus.
Dans la détermination du temps de thrombine on a utilisé de l'eau physiologique comme témoin.

sang humain [3] = assay: Thromboelastogram on whole blood; conditions: after recalcification, emulsion with ethanol, 10 minutes incubation
Procedure: as §1
(§2) Cette émulsion, mise en présence de quatre échantillons de sang humain, à raison de 0,1 ml pour 0,9 ml de sang, a permis d'effectuer les essais définis ci-dessus.

sang humain [4] = assay: Haemolysis evaluated on plasma after centrifugation; format: cell-based; conditions: plasma after centrifugation of blood at 2 000 g for 15 minutes
Procedure: as §1
L'hémolyse a été évaluée sur ces plasmas après centrifugation du sang à 2 000 g pendant 15 minutes.

[5] = Cloud point of the surfactant; format: physicochemical
sang humain [6] = assay: In vitro haemocompatibility: direct action on blood, overall observation
Procedure: On a recherché si les microémulsions selon l'invention avaient une action sur le sang humain en effectuant un thromboélastogramme, en mesurant le temps de thrombine diluée et en évaluant l'hémolyse.
as §1, §2

[7] = ethanol solution, 0,2 ml in 1,8 ml eau physiologique, laboratory temperature and 37 °C
[8] = emulsion with ethanol, 0,1 ml for 0,9 ml blood

With `OCCOCCOCCOCCOCCOCCOCC(F)(F)C(F)(F)C(F)(F)C(F)(F)C(F)(F)C(F)(F)C(F)(F)F` [C7F15CH2(OC2H4)6OH] as the compound, how does the “soluble dans les solutés physiologiques” value [1] read?
Its value is “n'est pas soluble”.

What about the “stabilité de l'émulsion” value [1, 7] of the same compound?
Its value is “instable”.

And the “temps d'éclaircissement de l'émulsion” value [1, 7]?
Its value is about 15 min.

What about the “activité semblable à la thrombine” value (sang humain [2]) of the same compound?
Its value is “ne produisent pas”.

And the “amplitude « amx »” value (sang humain [3])?
The value was “diminution”.

What about the “constante « r »” value (sang humain [3]) of the same compound?
Its value is “léger raccourcissement”.

What about the “« k” value (sang humain [3]) of the same compound?
The value was “allongement”.

And the hémolyse (sang humain [4])?
The hémolyse was “aucune trace”.

And the hémolyse (sang humain [4]; listed as agent tensio-actif seul)?
Its hémolyse is “absence”.

And the point de trouble [5]?
The point de trouble was under 0 °C.

And the “action directe sur du sang normal” value (sang humain [6]; [8])?
The value was “Aucune action directe”.

And the fluidité (sang humain [6]; [8])?
The fluidité was “n'a pas été altérée”.

What about the “effet in vitro sur le sang humain, non coagulé” value (sang humain [6]; summary) of the same compound?
Its value is “sans effet”.
